Results published in patent US10155948B2, “Pharmaceutical composition for preventing or treating diabetic complications and screening method for preventive or therapeutic agent for diabetic complications” (KANGWON NATIONAL UNIVERSITY UNIVERSITY-INDUSTRY COOPERATION …, priority 2016, dated 2018).

Columns and labels:
Type in all cases: cell-based, human
HRECs = assay: In-vitro endothelial cell monolayer permeability assay (FITC-dextran, Transwell); settings: 50 μM cystamine, 20 μM MDC or 100 nM dasatinib 30 min, 10 ng/ml VEGF 90 min, p<0.01
Procedure: In-vitro permeability assay was performed as previously described. HRECs were grown on gelatin-coated inserts (0.4 μm polycarbonate membrane) of Transwell® Permeable Supports (Costar, Corning, N.Y., USA) up to confluence. Approximately 1.0×10^5 cells in 0.5 ml of culture medium were seeded on the upper side of the membrane while 1 ml of culture medium was added to the lower compartment. […] The amount of FITC-dextran that diffused through the endothelial monolayer into the lower chamber was measured using a microplate spectrofluorometer (Molecular Devices, Sunnyvale, Calif., USA).
(A-C) HRECs were preincubated with 50 μM cystamine (Cys) and 20 μM MDC for 30 min and treated with 10 ng/ml VEGF. […] (C) Adherens junctions were quantitatively analyzed using the peak fluorescence intensities of the histograms at the single-cell level. The results are expressed as mean±SD from three independent trials. […] The amount of FITC-dextran that diffused to the lower chamber was measured by a microplate spectrofluorometer (n=3) (**p<0.01).
(A) β-catenin was visualized by confocal microscopy. […] (B) cSrc phosphorylation at Tyr^416 was analyzed by Western blot. […] Results are expressed as mean±SD from three independent experiments (**p<0.01, ***p<0.001).

β-catenin = assay: Visualization of β-catenin in HRECs; settings: 50 μM cystamine or 100 nM dasatinib 30 min, 10 ng/ml VEGF 90 min
Procedure: For visualization of β-catenin, cells were preincubated with inhibitors for 30 min and treated with 10 ng/ml VEGF for 90 min, fixed with 3.7% formaldehyde, and permeabilized with 0.2% Triton X-100. Cells were incubated overnight with a monoclonal anti-3-catenin antibody (1:200, Santa Cruz Biotechnology) at 4° C. Cells were then probed with an FITC-conjugated goat anti-mouse antibody (1:200, Sigma) and visualized using confocal microscopy. Images for making galleries were cropped to a smaller size using Microsoft PowerPoint 2010 software.
(A) β-catenin was visualized by confocal microscopy. Scale bar, 30 μm. (B) cSrc phosphorylation at Tyr^416 was analyzed by Western blot. (C) In-vitro endothelial cell monolayer permeability assay. Results are expressed as mean±SD from three independent experiments (**p<0.01, ***p<0.001).

c-Src = c-Src phosphorylation (Tyr416) by Western blot in HRECs; settings: 50 μM cystamine or 100 nM dasatinib 30 min, 10 ng/ml VEGF 15 min
Procedure: Cells were incubated with an ice-cold lysis buffer containing 50 mM Tris-HCl (pH 7.5), 1% Triton X-100, 150 mM NaCl, 1 mM EDTA, 0.1 mM phenylmethylsulfonyl fluoride (PMSF), 10 μg/ml aprotinin, and 10 μg/ml leupeptin for 30 min. Cell lysates were separated by SDS-PAGE and transferred to polyvinylidene fluoride membranes. The membranes were blocked with 5% skim milk in TBS with 0.1% Tween for 1 hr at room temperature (RT). […] Protein bands were visualized using a chemiluminescent substrate (Pierce, Rockford, Ill.).

SMILES	VEGF-increased in-vitro endothelial permeability (HRECs)	VEGF-induced β-catenin breakdown (β-catenin)	VEGF-induced c-Src phosphorylation (Tyr416) (c-Src)
CN(C)c1cccc2c(S(=O)(=O)NCCCCCN)cccc12 [MDC, monodansylcadaverine]	inhibited	–	–
NCCSSCCN [cystamine]	inhibited	inhibited	prevented
